Test results: patent publication US10030056B2, “Agents for preventing and treating HIV and other viral infections” (priority 2013, dated 2018)
Non-standard residues stand in square brackets, D forms with d. No end group written: not given here.

Legend:
[1] = system: HIV-1 laboratory strain NL4-3 PI 952; assay: Infectivity of HIV-1 NL4-3 PI 952 in TZM-bl cells with 6 μg/ml SEVI fibrils, luciferase activity (FIG. 4, Table 1); assay type: cell-based; settings: for luciferase activity of infected cells, mean value: 6 μg/ml SEVI fibrils, 48 hours after infection, HIV + SEVI control 7264.0, HIV + PBS 579.0; for lowering of the increased infectivity of the viruses caused by fibrils associated with SEVI: summary of Table 1 / FIG. 4
Method: The test approach was broken down as follows: The reporter cell line TZM-bl was incubated with the HIV-1 laboratory strain NL4-3 PI 952 in the presence of 6 μg/ml SEVI fibrils (fibril-forming PAP fragments isolated from semen; semen derived enhancer of virus infection). The fibrils were pre-Incubated with or without D3 and D3D3 (0.5 and 5 μg/ml, respectively) prior to infection. The infection efficiency was determined by measuring the luciferase activity (introduced by a luciferase gene coded in the laboratory strain) of the infected cells 48 hours after infection (Table 1: Results of FIG. 4).

HIV-1 [2] = system: HIV-1
Excerpt: So as to analyze the effect of the amyloidogenic inhibitor D3 as a potential therapeutic agent for reducing amyloid peptide-promoted retroviral propagation, adherently growing TZM-bl cells were infected with HIV-1. These cells express the HIV-1 receptors CD4, CXCR4 and CCR5, which is why they are permissive both for T-tropic and M-tropic HIV isolates. […] The TZM-bl indicator cell line thus allows a quantitative analysis of HIV infection efficiency.
D3 was composed of amino acids of the D-enantiomeric form. Forty-eight hours after infection, the TZM-bl cells were washed with PBS, fixed by adding formaldehyde/glutaraldehyde, and subsequently washed again. The β-galactosidase-induced blue coloration of the cells was carried out by incubation overnight with a X-Gal solution. The coloring solution was removed the following day, the fixed cells were washed again with PBS and analyzed for blue coloration by way of optical microscopy. Since these reporter cells also express luciferase, in addition to the β-galactosidase, proportionally with the infection rate, this effect could also be determined quantitatively. […] After adding luciferase substrate solution, the light intensity at the 560 nm wavelength created by the oxidation of luciferin, which, in turn, is catalyzed by the firefly luciferase enzyme, was measured. […]

HIV-1 [3] = system: HIV-1; remark: listed apart in the source
Excerpt: So as to analyze the effect of the amyloidogenic inhibitor D3 as a potential therapeutic agent for reducing amyloid peptide-promoted retroviral propagation, adherently growing TZM-bl cells were infected with HIV-1. […] The TZM-bl indicator cell line thus allows a quantitative analysis of HIV infection efficiency.
D3 was composed of amino acids of the D-enantiomeric form. Forty-eight hours after infection, the TZM-bl cells were washed with PBS, fixed by adding formaldehyde/glutaraldehyde, and subsequently washed again. The β-galactosidase-induced blue coloration of the cells was carried out by incubation overnight with a X-Gal solution. The coloring solution was removed the following day, the fixed cells were washed again with PBS and analyzed for blue coloration by way of optical microscopy. Since these reporter cells also express luciferase, in addition to the β-galactosidase, proportionally with the infection rate, this effect could also be determined quantitatively. For this purpose, the cells were infected in the same manner and, after being washed twice with PBS, were lysed using 1× passive lysis buffer (PLB). After adding luciferase substrate solution, the light intensity at the 560 nm wavelength created by the oxidation of luciferin, which, in turn, is catalyzed by the firefly luciferase enzyme, was measured. […]

[4] = number of cells colored in blue and measured light intensity

rprtrlhthrnr ([dR][dP][dR][dT][dR][dL][dH][dT][dH][dR][dN][dR]) [D3]
luciferase activity of infected cells, mean value ([1]; 0.5 μg/ml peptide): 7112.7 | luciferase activity of infected cells, mean value ([1]; 5 μg/ml peptide): 4368.0 | lowering of the increased infectivity of the viruses caused by fibrils associated with SEVI [1]: approximately 80% | decrease in number of infected cells compared to the untreated cells with SEVI fibrils (HIV-1 [2]; 0.5 μg/ml D3, SEVI fibrils, TZM-bl cells, FIG. 2C): approximately 60% | reduction of infection rate promoted by SEVI (HIV-1 [2]; [4]): considerably reduce | decrease in number of infected cells compared to the untreated cells with amyloid-beta fibrils (HIV-1 [3]; 5 μg/ml D3, Aβ1-42 fibrils 50 μg/ml, TZM-bl cells, FIG. 2D): approximately 90% | reduction of infection rate promoted by Aβ (HIV-1 [3]; [4]): considerably reduce

rprtrlhthrnrrprtrlhthrnr ([dR][dP][dR][dT][dR][dL][dH][dT][dH][dR][dN][dR][dR][dP][dR][dT][dR][dL][dH][dT][dH][dR][dN][dR]) [D3D3, dimer of two D3 monomer units]
luciferase activity of infected cells, mean value ([1]; 0.5 μg/ml peptide): 5529.7 | luciferase activity of infected cells, mean value ([1]; 5 μg/ml peptide): 1321.0 | lowering of the increased infectivity of the viruses caused by fibrils associated with SEVI [1]: approximately 80%
